Test results: patent publication US20260014146A1, “CDK2 INHIBITORS AND METHODS OF USING THE SAME” (Cedilla Therapeutics, Inc., priority 2022, published 2026)

Columns and labels:
[1] = test system: Kuramochi cells labeled with mApple-H2B; assay: IncuCyte cell proliferation assay; type: cell-based; settings: Kuramochi RB-WT, cell count 0 to 72 hours; method calls it GI50
How it was run: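 mApple-H2B-labelled Kuramochi cells were treated with compound (10-point, half-log dilutions, 20 μM top) and fluorescent nuclei counted by imaging at 0 and 72 h. Fold change in count was normalized to DMSO wells and fitted to dose-response curves to give GI50.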

CDK2/Cyclin E1 = CDK2/Cyclin E1 (Homo sapiens (Human), UniProt P24941); assay: ADP-Glo Luminescent Kinase Assay, ADPGLO (CDK2/E1-37C); type: biochemical; settings: 0.18 nM CDK2/Cyclin E1, 100 μM ATP, 1.5 μM Histone H1, 37° C.; read-out: Pharmaron ADPGLO (CDK2/E1-37C): IC50
Method: Inhibition of CDK2/Cyclin E1 activity by the presence of small molecules was evaluated using ADP-Glo Luminescent Kinase Assay (Promega). Activated CDK2/Cyclin E1 was incubated with its substrate Histone H1 (SignalChem H10-54N) in the kinase reaction buffer (100 μM ATP, 50 mM HEPES pH 7.5, 10 mM MgCl2, 1 mM EDTA, 2 mM DTT, 0.01% Brij35, 0.5 mg/mL BSA). Luminescence was recorded with an Envision plate reader (PerkinElmer).
Dose titrations of inhibitors in 100% DMSO were combined with 0.36 nM CDK2/Cyclin E1 in reaction buffer. The mixtures were incubated for 60 minutes at 37° C. before the addition of ATP and Histone H1 substrate to initiate the kinase reaction. The final conditions were 0.18 nM CDK2/Cyclin E1, 100 μM ATP, and 1.5 μM Histone H1. The reactions were incubated at 37° C. for 90 minutes before being stopped with the addition of ADP-Glo reagent. This mixture was incubated at room temperature for 60 minutes before Kinase Detection Solution is added to generate luminescence. The stopped reactions were analyzed on an Envision plate reader. The conversion ratios were normalized to yield % activity, plotted against compound concentration, and fit to a four-parameter equation to determine the IC50 for each compound.

Row | SMILES | IC50 [1] | IC50 (CDK2/Cyclin E1)
1 | COc1ccc(S(=O)(=O)NC(=O)[C@@H](NC(=O)[C@@H]2CN(c3cc(F)cc4ncsc34)CC23CN(C(=O)C2(C(F)(F)F)CC2)C3)[C@@H](C)OCC23CCC(CC2)OC3)cc1 [Compound I-50, (S)-N-((2S,3R)-3-((2-oxabicyclo[2.2.2]octan-4-yl)methoxy)-1-((4-methoxyphenyl)sulfonamido)-1-oxobutan-2-yl)-6-(5-fluorobenzo[d]thiazol-7-yl)-2-(1-(trifluoromethyl)cyclopropane-1-carbonyl)-2,6-diazaspiro[3.4]octane-8-carboxamide] | > 20 µM | 5 to 10 µM
2 | C[C@@H](OCC12CCC(CC1)OC2)[C@H](NC(=O)[C@@H]1CN(c2cc(F)cc3ncoc23)CC12CN(C(=O)C1(C(F)(F)F)CC1)C2)C(=O)N1CCC(c2nccs2)CC1 [Compound I-52, (S)-N-((2S,3R)-3-((2-oxabicyclo[2.2.2]octan-4-yl)methoxy)-1-oxo-1-(4-(thiazol-2-yl)piperidin-1-yl)butan-2-yl)-6-(5-fluorobenzo[d]oxazol-7-yl)-2-(1-(trifluoromethyl)cyclopropane-1-carbonyl)-2,6-diazaspiro[3.4]octane-8-carboxamide] | 5 to 20 µM | 5 to 10 µM
3 | C[C@@H](OCC12CCC(CC1)OC2)[C@@H](COc1ccccc1C(=O)O)NC(=O)[C@@H]1CN(c2cc(F)cc3ncsc23)CC12CN(C(=O)C1(C(F)(F)F)CC1)C2 [Compound I-49, 2-((2R,3R)-3-((2-oxabicyclo[2.2.2]octan-4-yl)methoxy)-2-((S)-6-(5-fluorobenzo[d]thiazol-7-yl)-2-(1-(trifluoromethyl)cyclopropane-1-carbonyl)-2,6-diazaspiro[3.4]octane-8-carboxamido)butoxy)benzoic acid] | > 20 µM | > 10 µM
4 | C[C@@H](OCC12CCC(CC1)OC2)[C@H](NC(=O)[C@@H]1CN(c2cc(F)cc3ncsc23)CC12CN(C(=O)C1(C(F)(F)F)CC1)C2)C(=O)NS(=O)(=O)c1ccc(F)cc1F [Compound I-51, (S)-N-((2S,3R)-3-(2-oxabicyclo[2.2.2]octan-4-ylmethoxy)-1-(2,4-difluorophenylsulfonamido)-1-oxobutan-2-yl)-6-(5-fluorobenzo[d]thiazol-7-yl)-2-(1-(trifluoromethyl)cyclopropanecarbonyl)-2,6-diazaspiro[3.4]octane-8-carboxamide] | > 20 µM | 5 to 10 µM
5 | C[C@@H](OCC12CCC(CC1)OC2)[C@@H](COC1CCC(c2ccccc2C(=O)O)CC1)NC(=O)[C@@H]1CN(c2cc(F)cc3ncsc23)CC12CN(C(=O)C1(C(F)(F)F)CC1)C2 (stereo partly drawn) [Compound I-53, 2-(4-((2R,3R)-3-(2-oxabicyclo[2.2.2]octan-4-ylmethoxy)-2-((S)-6-(5-fluorobenzo[d]thiazol-7-yl)-2-(1-(trifluoromethyl)cyclopropanecarbonyl)-2,6-diazaspiro[3.4]octane-8-carboxamido)butoxy)cyclohexyl)benzoic acid] | > 20 µM | > 10 µM
6 | C[C@@H](OCC12CCC(CC1)OC2)[C@@H](COC1CCC(c2ccc(C(=O)O)cc2)CC1)NC(=O)[C@@H]1CN(c2cc(F)cc3ncsc23)CC12CN(C(=O)C1(C(F)(F)F)CC1)C2 (stereo partly drawn) [Compound I-47, 4-(4-((2R,3R)-3-((2-oxabicyclo[2.2.2]octan-4-yl)methoxy)-2-((S)-6-(5-fluorobenzo[d]thiazol-7-yl)-2-(1-(trifluoromethyl)cyclopropane-1-carbonyl)-2,6-diazaspiro[3.4]octane-8-carboxamido)butoxy)cyclohexyl)benzoic acid] | 5 to 20 µM | > 10 µM
